Measured values as given in patent publication US8188048B2 (priority 2006, dated 2012).
Where “and” joins values, the source holds several entries; their conditions need not be identical. Equal entries are not always repeated.

Tested on: CCI-rats (chronic constriction injury of the sciatic nerve); tactile allodynia in ipsilateral hindpaw, antinociception in contralateral hindpaw
Design: species or system Sprague-Dawley rats
Settings: rat, in vivo

Substance: pGlu Gly Val Cys1 Cys2 Gly Tyr Lys Leu Cys3 His Hyp Cys4 [SEQ ID NO: 6]
- ED10: 0.2 nmol
- ED20: 0.4 nmol
- ED50 for antinociception in the contralateral hindpaw: 15.2 nmol
- ED50 for the alleviation of tactile allodynia in the ipsilateral hindpaw: 14.8 (±1.1) nmol and 15.7 (±3.9) nmol
- change of mean PWT by 5 min post-dosing: more than doubled
- duration of action: 2 to 3 h and > 4 h
- duration of action relative to a similarly large dose of i.t. morphine (35 nmol): ~10 fold
- duration of anti-allodynic response relative to the 10 nmol dose: > 7 fold and > 13 fold
- duration of the anti-allodynic response: ~30 h and ~54 h
- effect on PWT in both the ipsilateral and contralateral hindpaws: dose-dependent increase
- extent and duration (PWT AUCs) of ipsilateral responses relative to contralateral responses: ~2 fold
- time of peak anti-allodynic and antinociceptive effects: 1 to 1.5 h
- time of peak antiallodynic and antinociceptive effects post-dosing: 15 min
- time of peak effect: 1 to 1.5 h
